Experimental data taken from ChEMBL document CHEMBL1201862, “PubChem BioAssay data set” (2004).
Activity calls are given as the source filed them.

Key:
[1] = HEp-2 cell cytotoxicity, dose response, cytotoxicity control for RSV inhibitor project, HTS (AID 2410); type: functional; conditions: human respiratory syncytial virus
[2] = target: T1, Type-1 angiotensin II receptor (Homo sapiens, UniProt P30556); test: AT1 receptor antagonists, dose response, selectivity assay for APJ receptor antagonist project, cell-based, uHTS hits (AID 463214); type: functional;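 also: antagonist potency against angiotensin II stimulated AT1 response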
T1 sequence (P30556 whole entry): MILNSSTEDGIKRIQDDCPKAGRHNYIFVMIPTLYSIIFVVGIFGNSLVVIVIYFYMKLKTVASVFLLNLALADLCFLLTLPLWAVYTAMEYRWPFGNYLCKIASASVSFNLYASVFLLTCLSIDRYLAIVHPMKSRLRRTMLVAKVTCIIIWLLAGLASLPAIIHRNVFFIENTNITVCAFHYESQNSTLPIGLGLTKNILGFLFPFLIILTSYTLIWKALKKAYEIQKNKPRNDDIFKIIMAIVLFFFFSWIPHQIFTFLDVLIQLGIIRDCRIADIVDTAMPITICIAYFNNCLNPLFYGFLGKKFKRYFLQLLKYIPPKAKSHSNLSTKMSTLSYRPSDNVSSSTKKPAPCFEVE

Beta-galactosidase = Beta-galactosidase (Escherichia coli, UniProt Q8VNN2); test: PubChem AID 485352; type: functional
Beta-galactosidase, sequence (Q8VNN2 whole entry): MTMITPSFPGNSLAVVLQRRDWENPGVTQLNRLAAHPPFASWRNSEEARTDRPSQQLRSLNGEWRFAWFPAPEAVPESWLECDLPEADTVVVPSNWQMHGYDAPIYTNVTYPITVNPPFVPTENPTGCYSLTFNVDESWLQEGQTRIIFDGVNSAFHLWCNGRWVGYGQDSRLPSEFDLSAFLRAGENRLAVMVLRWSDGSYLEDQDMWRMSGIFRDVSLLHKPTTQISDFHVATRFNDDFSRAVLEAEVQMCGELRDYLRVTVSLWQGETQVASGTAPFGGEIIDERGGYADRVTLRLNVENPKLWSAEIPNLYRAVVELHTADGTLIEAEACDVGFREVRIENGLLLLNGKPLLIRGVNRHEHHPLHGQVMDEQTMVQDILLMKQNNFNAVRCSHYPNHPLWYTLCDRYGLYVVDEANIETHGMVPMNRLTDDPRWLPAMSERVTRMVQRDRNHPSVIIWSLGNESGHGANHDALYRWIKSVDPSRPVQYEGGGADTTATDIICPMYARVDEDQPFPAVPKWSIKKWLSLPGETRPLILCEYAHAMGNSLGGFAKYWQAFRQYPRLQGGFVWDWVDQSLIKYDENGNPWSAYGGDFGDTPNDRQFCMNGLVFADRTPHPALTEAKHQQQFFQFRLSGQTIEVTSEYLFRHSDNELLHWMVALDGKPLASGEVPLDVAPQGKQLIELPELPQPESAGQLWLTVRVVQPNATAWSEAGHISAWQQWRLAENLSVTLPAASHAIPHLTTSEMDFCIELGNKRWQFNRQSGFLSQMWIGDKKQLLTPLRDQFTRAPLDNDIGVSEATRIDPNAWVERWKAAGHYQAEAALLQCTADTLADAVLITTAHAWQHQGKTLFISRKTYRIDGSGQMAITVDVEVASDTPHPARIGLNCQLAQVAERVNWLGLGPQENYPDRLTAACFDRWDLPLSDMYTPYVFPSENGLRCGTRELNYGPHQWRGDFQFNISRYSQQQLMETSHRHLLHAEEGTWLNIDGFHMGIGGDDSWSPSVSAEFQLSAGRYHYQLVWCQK

[3] = target: Voltage-dependent T-type calcium channel subunit alpha-1H (Homo sapiens, UniProt O95180); type: functional;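 also: channel activity triggered by adding a high calcium stimulation buffer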
Voltage-dependent T-type calcium channel subunit alpha-1H, sequence (O95180 whole entry): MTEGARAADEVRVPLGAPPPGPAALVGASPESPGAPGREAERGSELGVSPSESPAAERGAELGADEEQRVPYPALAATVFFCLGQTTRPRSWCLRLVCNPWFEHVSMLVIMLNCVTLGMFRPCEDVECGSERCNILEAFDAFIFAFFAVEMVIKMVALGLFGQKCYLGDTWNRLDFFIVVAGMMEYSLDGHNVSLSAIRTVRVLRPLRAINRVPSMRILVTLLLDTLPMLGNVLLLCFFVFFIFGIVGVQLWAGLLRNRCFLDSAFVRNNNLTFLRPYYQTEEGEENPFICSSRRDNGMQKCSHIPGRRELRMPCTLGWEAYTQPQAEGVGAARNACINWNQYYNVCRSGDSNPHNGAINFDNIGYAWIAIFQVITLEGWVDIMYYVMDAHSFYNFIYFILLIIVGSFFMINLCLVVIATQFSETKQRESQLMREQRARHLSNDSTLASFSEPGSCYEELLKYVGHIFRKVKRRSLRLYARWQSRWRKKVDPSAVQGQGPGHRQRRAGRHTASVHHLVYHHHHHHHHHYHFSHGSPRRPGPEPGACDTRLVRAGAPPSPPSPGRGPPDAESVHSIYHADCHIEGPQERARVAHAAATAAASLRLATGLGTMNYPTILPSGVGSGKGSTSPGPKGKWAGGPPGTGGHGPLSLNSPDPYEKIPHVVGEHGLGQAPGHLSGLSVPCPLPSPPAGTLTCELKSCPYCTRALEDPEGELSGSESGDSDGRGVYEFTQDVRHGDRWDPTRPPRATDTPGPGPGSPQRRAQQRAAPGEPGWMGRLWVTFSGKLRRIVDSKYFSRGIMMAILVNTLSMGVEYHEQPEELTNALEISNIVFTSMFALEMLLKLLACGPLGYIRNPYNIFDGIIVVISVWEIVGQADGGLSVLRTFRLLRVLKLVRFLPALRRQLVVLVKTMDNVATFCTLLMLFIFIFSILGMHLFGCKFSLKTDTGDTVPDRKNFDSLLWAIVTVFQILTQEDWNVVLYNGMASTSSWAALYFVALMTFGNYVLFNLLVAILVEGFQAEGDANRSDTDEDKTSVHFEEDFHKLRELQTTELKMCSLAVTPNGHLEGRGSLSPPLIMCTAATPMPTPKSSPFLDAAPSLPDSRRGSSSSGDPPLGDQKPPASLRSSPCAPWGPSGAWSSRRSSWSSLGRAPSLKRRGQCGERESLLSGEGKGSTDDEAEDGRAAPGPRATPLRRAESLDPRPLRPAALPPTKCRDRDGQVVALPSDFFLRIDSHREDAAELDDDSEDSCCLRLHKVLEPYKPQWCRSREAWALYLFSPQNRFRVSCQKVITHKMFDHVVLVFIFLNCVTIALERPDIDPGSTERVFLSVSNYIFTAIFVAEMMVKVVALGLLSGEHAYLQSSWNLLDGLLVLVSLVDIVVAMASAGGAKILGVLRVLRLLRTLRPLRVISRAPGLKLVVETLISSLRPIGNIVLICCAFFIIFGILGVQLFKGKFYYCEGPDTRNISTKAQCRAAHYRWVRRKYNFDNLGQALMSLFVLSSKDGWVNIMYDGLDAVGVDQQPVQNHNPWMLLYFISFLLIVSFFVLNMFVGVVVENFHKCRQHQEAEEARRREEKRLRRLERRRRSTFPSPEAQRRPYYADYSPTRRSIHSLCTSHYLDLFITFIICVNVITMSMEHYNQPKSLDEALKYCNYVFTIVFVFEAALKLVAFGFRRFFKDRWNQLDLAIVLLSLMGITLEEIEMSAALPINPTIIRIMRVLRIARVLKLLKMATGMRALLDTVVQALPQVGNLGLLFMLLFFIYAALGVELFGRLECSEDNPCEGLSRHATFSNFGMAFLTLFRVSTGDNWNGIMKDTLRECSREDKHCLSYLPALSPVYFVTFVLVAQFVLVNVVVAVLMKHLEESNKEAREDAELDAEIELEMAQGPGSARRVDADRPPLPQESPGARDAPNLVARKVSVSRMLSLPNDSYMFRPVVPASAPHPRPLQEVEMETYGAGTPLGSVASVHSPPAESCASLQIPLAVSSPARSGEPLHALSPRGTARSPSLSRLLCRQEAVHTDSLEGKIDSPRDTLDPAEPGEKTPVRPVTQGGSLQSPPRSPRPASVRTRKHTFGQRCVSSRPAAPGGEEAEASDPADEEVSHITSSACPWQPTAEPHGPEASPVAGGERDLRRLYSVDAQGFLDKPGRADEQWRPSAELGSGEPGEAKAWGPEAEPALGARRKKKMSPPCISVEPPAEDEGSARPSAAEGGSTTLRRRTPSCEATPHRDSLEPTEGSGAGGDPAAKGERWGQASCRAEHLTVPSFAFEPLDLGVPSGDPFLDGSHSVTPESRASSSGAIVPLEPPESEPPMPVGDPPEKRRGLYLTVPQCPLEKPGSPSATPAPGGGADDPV

[4] = target: T2, Endoribonuclease toxin MazF (Escherichia coli K-12, UniProt P0AE70); test: fluorescent RNA oligo signal without MazF, dose response, counter-screen for MazEF activator project, biochemical, fluorescence, single-stranded RNase substrate (AID 588502); type: functional
T2 sequence (P0AE70 whole entry): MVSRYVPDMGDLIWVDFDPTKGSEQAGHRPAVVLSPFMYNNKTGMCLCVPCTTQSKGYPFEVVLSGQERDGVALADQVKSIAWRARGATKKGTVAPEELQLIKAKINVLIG

[5] = target: T3, Zinc finger protein mex-5 (Caenorhabditis elegans, UniProt Q9XUB2); test: MEX-5/TCR-2 RNA interaction inhibitors, dose response, biochemical, C. elegans, fluorescence polarization (AID 1960)
T3 sequence (Q9XUB2 whole entry): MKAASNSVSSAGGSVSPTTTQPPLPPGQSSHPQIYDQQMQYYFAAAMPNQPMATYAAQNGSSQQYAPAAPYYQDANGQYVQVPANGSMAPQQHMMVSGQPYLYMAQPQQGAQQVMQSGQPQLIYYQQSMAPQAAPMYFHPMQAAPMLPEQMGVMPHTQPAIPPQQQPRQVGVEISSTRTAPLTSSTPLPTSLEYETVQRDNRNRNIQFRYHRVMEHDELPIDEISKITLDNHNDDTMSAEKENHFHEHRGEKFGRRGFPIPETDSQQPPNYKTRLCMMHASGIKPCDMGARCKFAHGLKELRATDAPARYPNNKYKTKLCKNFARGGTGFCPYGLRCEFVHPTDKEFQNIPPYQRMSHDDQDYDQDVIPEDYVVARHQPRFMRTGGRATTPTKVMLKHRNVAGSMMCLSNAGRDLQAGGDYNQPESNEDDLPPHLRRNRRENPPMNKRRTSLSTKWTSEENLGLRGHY

[6] = target: T4, RNA-binding protein pos-1 (Caenorhabditis elegans, UniProt G5EF15); test: inhibitors of POS-1/mex-3 RNA binding, dose response, biochemical, fluorescence polarization (AID 1964);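 also: purified POS-1 fused to maltose binding protein made in E. coli; potency of compounds blocking POS-1 binding to fluorescent RNA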
T4 sequence (G5EF15 whole entry): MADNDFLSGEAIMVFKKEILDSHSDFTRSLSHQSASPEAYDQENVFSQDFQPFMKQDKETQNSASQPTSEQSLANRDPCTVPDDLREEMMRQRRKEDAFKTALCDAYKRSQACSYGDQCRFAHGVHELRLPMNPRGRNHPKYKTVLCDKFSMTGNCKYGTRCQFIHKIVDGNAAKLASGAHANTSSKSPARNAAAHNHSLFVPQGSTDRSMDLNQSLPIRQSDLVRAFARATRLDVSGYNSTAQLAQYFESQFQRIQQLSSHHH

[7] = target: T2, Endoribonuclease toxin MazF; test: MazF toxin RNase activators, dose response, biochemical, fluorescence, single-stranded RNA substrate, uHTS hits (AID 588481); type: functional
[8] = target: T5, DNA repair protein RAD52 homolog (Homo sapiens, UniProt P43351); type: functional, biochemical
T5 sequence (P43351 whole entry): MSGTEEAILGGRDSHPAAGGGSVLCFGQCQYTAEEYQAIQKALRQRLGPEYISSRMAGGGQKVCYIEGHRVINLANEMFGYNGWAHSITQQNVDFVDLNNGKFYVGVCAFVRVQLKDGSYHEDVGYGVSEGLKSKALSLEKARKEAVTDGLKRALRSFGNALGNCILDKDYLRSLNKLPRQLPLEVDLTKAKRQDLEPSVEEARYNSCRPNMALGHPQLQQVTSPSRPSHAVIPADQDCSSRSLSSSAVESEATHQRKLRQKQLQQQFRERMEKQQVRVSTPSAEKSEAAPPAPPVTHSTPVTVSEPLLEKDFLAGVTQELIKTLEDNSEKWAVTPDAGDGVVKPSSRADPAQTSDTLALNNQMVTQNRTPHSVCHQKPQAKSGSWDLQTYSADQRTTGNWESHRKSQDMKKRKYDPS

Cytochrome P450 3A4 = Cytochrome P450 3A4 (Homo sapiens, UniProt P08684); conditions: Potency;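 also: confirmatory qHTS run detecting inhibitors and substrates of CYP3A4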
Cytochrome P450 3A4, sequence (P08684 whole entry): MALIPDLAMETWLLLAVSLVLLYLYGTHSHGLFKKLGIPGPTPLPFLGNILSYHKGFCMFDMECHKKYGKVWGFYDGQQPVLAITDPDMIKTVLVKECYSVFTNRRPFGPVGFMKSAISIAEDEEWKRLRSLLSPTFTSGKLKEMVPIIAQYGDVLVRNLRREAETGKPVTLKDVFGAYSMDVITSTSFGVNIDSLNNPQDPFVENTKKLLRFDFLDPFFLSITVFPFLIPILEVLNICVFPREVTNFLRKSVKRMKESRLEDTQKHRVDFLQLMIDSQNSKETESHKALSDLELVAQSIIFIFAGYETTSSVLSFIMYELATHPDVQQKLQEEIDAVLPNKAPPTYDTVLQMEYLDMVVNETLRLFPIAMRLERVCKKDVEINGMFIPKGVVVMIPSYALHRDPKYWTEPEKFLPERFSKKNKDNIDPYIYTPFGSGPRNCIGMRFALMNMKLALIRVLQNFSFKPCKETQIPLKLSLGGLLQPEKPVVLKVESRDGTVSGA

[9] = test system: Streptococcus sp. 'group A'; test: growth inhibition of control SK(-) GAS strain, dose response, counter-screen for streptokinase expression inhibitor project, luminescence, kanamycin, BacTiterGlo, confirmation (AID 1900); type: functional, organism-based
Streptococcus = test: Group A Streptococcus viability loss, dose response, counter-screen for streptokinase expression inhibitor project, luminescence, BacTiterGlo (AID 1915); type: functional, organism-based;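 also: potency for reduction of bacterial viability or growth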
Vero = Vero cell cytotoxicity, cytotoxicity control for flavivirus capping enzyme inhibitors (AID 588742); type: functional; conditions: Chlorocebus sabaeus
H9c2 = test: cells; type: functional, cell-based; conditions: Rattus norvegicus, H9c2, Myocardium
[10] = A cytotoxicity screen of small molecule inhibitors of the PhoP region in Salmonella typhi identified in the primary screen. [Related pubchem assays: 1850, 1864, 1985 ]; type: functional
[11] = microbe, parasite or virus in culture; type: functional; conditions: Mycobacterium tuberculosis
[12] = C. albicans growth with fluconazole, confirmation, fluorescence, retest (AID 2467); type: functional, cell-based
[13] = NIH-3T3 fibroblast cytotoxicity, dose response, cytotoxicity control, cell-based, fluorescence, Alamar Blue, secondary assay (AID 2327); type: functional;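 also: NIH-3T3 mouse fibroblasts cultured with fluconazole at 8 µg/mL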
[14] = target: FAD-linked sulfhydryl oxidase ALR (Homo sapiens, UniProt P55789); test: inhibitors of human ALR sulfhydryl oxidase, dose response, biochemical, H2O2 detection, luminescence, cherry-pick (AID 493248)
FAD-linked sulfhydryl oxidase ALR, sequence (P55789 whole entry): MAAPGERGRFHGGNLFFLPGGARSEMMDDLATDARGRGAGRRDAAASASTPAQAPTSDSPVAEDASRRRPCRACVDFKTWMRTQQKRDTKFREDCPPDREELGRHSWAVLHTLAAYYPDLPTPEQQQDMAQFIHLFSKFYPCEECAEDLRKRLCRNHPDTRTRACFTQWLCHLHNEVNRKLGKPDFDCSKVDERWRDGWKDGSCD

P388 = test: cells; type: functional; conditions: Mus musculus
P388/ADR = test: cells; type: functional; conditions: Mus musculus
SN12K1 = test: cells; type: functional; conditions: Homo sapiens

## CC(Nc1cccc2ccccc12)C(=O)N/N=C/c1ccc([N+](=O)[O-])cc1 (stereo not drawn)
[1]
  CC50: 21.8 µM (active)
cells
  IC50: 22.1 µM (active)

## Cc1nn(CCC(=O)NN=C(S)Nc2ccc(F)cc2)c(C)c1Br
[2]
  IC50: > 40 µM (not active)
Beta-galactosidase
  EC50: > 40 µM (inactive)

## O=C(CSc1nnc(-c2ccccc2)n1Cc1ccco1)NCc1ccc2c(c1)OCO2
[3]
  EC50: 12.1 µM (active)

## Cc1cc(NC(=O)/C(C#N)=C/c2ccc(-c3ccc(SC(F)F)cc3)o2)n(-c2ccccc2)n1
[4]
  EC50: 48.9 µM (inactive)
[5]
  EC50: 25.8 µM (active)
[6]
  EC50: 22.9 µM (active)
[7]
  EC50: > 99 µM (inactive)

## Cc1cc(C)c2nc3nc(C)c(C)cc3c(N)c2c1
[8]
  AC50: 1.56 µM (active)

## COc1ccc(N(C(=O)Cn2cnc3ccccc32)C(C(=O)NC2CCCCC2)c2ccccc2)cc1 (stereo not drawn)
[3]
  EC50: 4.82 µM (active)

## Clc1ccc(C2[C@H]3CN(Cc4ccc(-c5ccccc5)cc4)[C@H](c4ccccc4)C34CC2(c2ccccc2)C4)cn1 (stereo partly drawn)
Cytochrome P450 3A4
  AC50: 15.8 µM (inconclusive)

## CC(C)=CCc1c2c(c3occ(-c4ccc(O)cc4)c(=O)c3c1O)C=CC(C)(C)O2 [OSAJIN]
Cytochrome P450 3A4
  AC50: 25.1 µM (inconclusive)
[9]
  EC50: 1.11 µM (active)
Streptococcus
  EC50: 1.47 µM (active)

## COc1ccccc1C(=O)Nc1ccc(NC(=O)c2ccco2)c(C)c1
[3]
  EC50: 6.29 µM (active)

## O=c1oc2ccccc2cc1-c1nc(-c2cccs2)cs1
[4]
  EC50: > 99 µM (inactive)
[5]
  EC50: 5.43 µM (active)
[6]
  EC50: 15.6 µM (inconclusive)
[7]
  EC50: > 99 µM (inactive)

## NS(=O)(=O)c1ccc(CNC(=O)COc2ccc3c4c(c(=O)oc3c2)CCCC4)cc1
[4]
  EC50: > 99 µM (inactive)
[7]
  EC50: > 99 µM (inactive)

## CNC(=O)/C(C#N)=C/c1c(N(Cc2ccccc2)Cc2ccccc2)nc2ccccn2c1=O
Vero
  CC50: > 40 µM (active)
H9c2
  IC50: > 79 µM (inactive)

## CC1=NN(c2ccc(C)cc2)C(=O)/C1=C/c1ccc(-c2cc([N+](=O)[O-])ccc2O)o1
[2]
  IC50: > 40 µM (not active)
Beta-galactosidase
  EC50: > 40 µM (inactive)

## COc1ccc(N(C(=O)c2cccnc2)S(=O)(=O)c2ccc(F)cc2)cc1
[10]
  EC50: > 50 µM (active)

## Cc1cccc2c1N(CCCOc1ccccc1)C(=O)C2=O
[2]
  IC50: > 40 µM (not active)
Beta-galactosidase
  EC50: > 40 µM (inactive)

## COc1ccc(C)cc1NC(=O)C1CCN(S(=O)(=O)c2c(C)noc2C)CC1
[10]
  EC50: > 50 µM (active)

## O=C(/C=C/c1ccc(Cl)cc1)c1cccs1
Cytochrome P450 3A4
  AC50: 25.1 µM (inconclusive)

## C#CCN1C(=O)S/C(=C\c2ccc(N3CCOCC3)cc2C)C1=O
[4]
  EC50: > 99 µM (inactive)
[7]
  EC50: > 99 µM (inactive)

## CC(=O)OCC1OC(C#CCC2CCCCC2)C=CC1OC(C)=O (stereo not drawn)
Cytochrome P450 3A4
  AC50: 3.16 µM (inconclusive)

## Cc1ccc(C(=O)N/C(=C\c2ccc(C(C)C)cc2)C(=O)NCCCN2CCOCC2)cc1
cells
  IC50: 14.6 µM (active)

## O=C(O)c1cc(O)c2c(c1)C(=O)c1cc(O)cc(O)c1C2=O [EMODIC ACID]
Cytochrome P450 3A4
  AC50: 15.8 µM (inconclusive)

## Cc1ccc(S(=O)(=O)NC2CCCCC2)cc1
Cytochrome P450 3A4
  AC50: 20 µM (inconclusive)

## CC(Oc1ccccc1)c1ccnn1S(=O)(=O)c1ccccc1 (stereo not drawn)
[3]
  EC50: 50.8 µM (active)

## Cc1ccc(C(=O)N/C(=C/c2ccc(-c3cc(C(F)(F)F)ccc3Cl)o2)C(=O)NCc2cccnc2)cc1
[11]
  CC50: > 40 µM (active)
[12]
  EC50: > 38 µM (not active)
[13]
  EC50: 21.4 µM (active)

## Cc1cc(NS(=O)(=O)c2ccc(NC(=O)Nc3cccc(Cl)c3)cc2)no1
[10]
  EC50: > 50 µM (active)
[14]
  AC50: 98 nM (active)

## COc1cccc(/N=C2\NC(=O)/C(=C/c3cc([N+](=O)[O-])ccc3O)S2)c1
[2]
  IC50: > 40 µM (not active)
Beta-galactosidase
  EC50: > 40 µM (inactive)

## O=[N+]([O-])c1cc(C(F)(F)F)ccc1NCC1CCCO1 (stereo not drawn)
[4]
  EC50: > 99 µM (inactive)
[7]
  EC50: > 99 µM (inactive)

## Clc1ccc2c(NCc3ccccn3)ccnc2c1
[10]
  EC50: > 50 µM (active)

## CCn1c(CNc2ccccc2Cl)nnc1SCC(=O)OC1CCCCC1
[3]
  EC50: 3.84 µM (active)

## Cc1ccc2oc(C(=O)Nc3ccc(S(=O)(=O)Nc4onc(C)c4C)cc3)c(C)c2c1
[1]
  CC50: 25.9 µM (active)
cells
  IC50: 23.7 µM (active)

## CCc1ccccc1Nc1nc(N)nc(COC(=O)c2cccn2C)n1
[1]
  CC50: 17.3 µM (active)
cells
  IC50: 13 µM (active)

## O=C(COC(=O)c1ccco1)c1ccc(S(=O)(=O)N2CCCCC2)cc1
[2]
  IC50: 16.5 µM (active)
Beta-galactosidase
  EC50: > 40 µM (inactive)

## CCC1(c2ccc(N)cc2)CCC(=O)NC1=O (stereo not drawn) [AMINOGLUTETHIMIDE]
P388
  GI50: 2.39 mM (inactive)
P388/ADR
  GI50: 1.61 mM (inactive)
Cytochrome P450 3A4
  AC50: 31.6 µM (inconclusive)
SN12K1
  GI50: 1.69 mM (inactive)

## N#CC1CC(c2ccccc2)=NN1c1ccccc1[N+](=O)[O-] (stereo not drawn)
[12]
  EC50: > 38 µM (not active)
[13]
  EC50: > 160 µM (inactive)

## CC(=O)c1ccc(N2CCN(Cc3nc4ccccc4[nH]3)CC2)cc1
[1]
  CC50: > 50 µM (active)
cells
  IC50: 10.8 µM (active)
